Data taken from the supplement of paper PMC10307832.

How the values were obtained:
Experiment in all cases: relative viability (nuclei count vs DMSO), 5 days (fraction); higher = more cells survive
[1] = compound: COc1cc(Nc2c(C#N)cnc3cc(OCCCN4CCN(C)CC4)c(OC)cc23)c(Cl)cc1Cl [Bosutinib]
Method in brief: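 Following overnight incubation at 37 °C, lung cancer cell lines in 1536-well plates were pinned with five library-drug doses (not always all listed) in √10 steps on vehicle-anchored plates. The cells then spent 5 days without medium change before a combined fix, permeabilisation and Hoechst stain, 4× imaging and MetaXpress nuclear counts. Viability is the treated-to-vehicle ratio of nuclei, taken as the median across plates. Only plates with control CV below 25% and at least one doubling passed.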

[2] = compound: COc1cc(Nc2c(C#N)cnc3cc(OCCCN4CCN(C)CC4)c(OC)cc23)c(Cl)cc1Cl [Bosutinib] + COc1cc2c(Oc3ccc(NC(=O)C4(C(=O)Nc5ccc(F)cc5)CC4)cc3F)ccnc2cc1OCCCN1CCOCC1 [Foretinib] (partner 0.25 µM)
Method in brief: (§1)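 Each reported value is a median over duplicate plates. It expresses relative viability: treated-well nuclei count divided by vehicle-well nuclei count. Lung cancer cell lines in 1536-well plates were dosed by pin tool a day after seeding, alone with one drug or with a fixed anchor-drug dose plus five library-drug doses (not always all listed) in √10 steps, and nuclei were counted after 5 days.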

[3] = compound: COc1cc(Nc2c(C#N)cnc3cc(OCCCN4CCN(C)CC4)c(OC)cc23)c(Cl)cc1Cl [Bosutinib] + C[C@@H](Oc1cc(-c2cnn(C3CCNCC3)c2)cnc1N)c1c(Cl)ccc(F)c1Cl [Crizotinib] (partner 1 µM)
Method in brief: as §1

[4] = compound: COc1cc(Nc2c(C#N)cnc3cc(OCCCN4CCN(C)CC4)c(OC)cc23)c(Cl)cc1Cl [Bosutinib] + C[C@]1(O)C[C@@H](c2nc(-c3ccc4ccc(-c5ccccc5)nc4c3)c3c(N)nccn32)C1 [Linsitinib] (partner 1 µM)
Method in brief: as §1

[5] = compound: COc1cc(Nc2c(C#N)cnc3cc(OCCCN4CCN(C)CC4)c(OC)cc23)c(Cl)cc1Cl [Bosutinib] + N=C(N)NC(=N)NCCc1ccccc1 [Phenformin] (partner 250 µM)
Method in brief: as §1

Cell Line	relative viability ([1]; 0.01 µM)	relative viability ([1]; 0.03162 µM)	relative viability ([1]; 0.1 µM)	relative viability ([1]; 1 µM)	relative viability ([2]; first compound 0.01 µM)	relative viability ([2]; first compound 0.03162 µM)	relative viability ([2]; first compound 0.1 µM)	relative viability ([2]; first compound 1 µM)	relative viability ([3]; first compound 0.01 µM)	relative viability ([3]; first compound 0.03162 µM)	relative viability ([3]; first compound 0.1 µM)	relative viability ([3]; first compound 1 µM)	relative viability ([4]; first compound 0.01 µM)	relative viability ([4]; first compound 0.03162 µM)	relative viability ([4]; first compound 0.1 µM)	relative viability ([4]; first compound 1 µM)	relative viability ([5]; first compound 0.01 µM)	relative viability ([5]; first compound 0.03162 µM)	relative viability ([5]; first compound 0.1 µM)	relative viability ([5]; first compound 1 µM)
NCI-H23	1.13	0.997	1.04	0.872	0.939	1.03	0.979	0.723	0.636	0.464	0.512	0.458	0.442	0.556	0.647	0.46	0.807	0.77	0.831	0.751
HCC-827	1.07	1.05	1.09	0.649	0.965	1.04	1.02	0.203	0.874	0.943	0.91	0.605	0.987	0.967	0.914	0.843	0.427	0.407	0.366	0.19
HCC-78	0.906	1.2	1.08	0.902	0.553	0.506	0.571	0.52	0.358	0.319	0.284	0.314	0.575	0.492	0.52	0.407	0.665	0.703	0.802	0.7
UMC-11	1	1.01	0.956	0.912	0.979	1.07	1.03	0.94	0.597	0.622	0.555	0.579	0.916	0.981	0.967	0.866	0.321	0.312	0.312	0.247
NCI-H1975	0.992	0.958	0.966	0.81	0.981	0.975	0.977	0.841	0.926	0.965	1.01	0.849	0.932	0.833	0.952	0.722	0.401	0.447	0.437	0.403
NCI-H1563	1.05	0.906	0.928	0.713	0.917	0.953	0.846	0.676	0.896	0.753	0.753	0.658	1.24	1.2	1.06	0.792	0.65	0.635	0.617	0.573
COR-L23	1.05	0.972	1.07	1.03	1.04	0.938	0.971	0.967	0.663	0.589	0.571	0.749	1	0.96	0.895	0.887	0.432	0.451	0.449	0.496
CAL-12T	1.06	0.96	0.95	0.914	1.11	1.09	1.11	0.834	0.543	0.7	0.638	0.362	0.739	0.932	0.891	0.71	0.567	0.584	0.52	0.382
SW 1573	1.05	1.02	0.941	0.924	0.913	0.825	0.693	0.858	0.655	0.813	0.917	0.782	0.778	0.75	0.807	0.801	0.411	0.357	0.358	0.27
NCI-H2126	0.972	0.997	0.969	0.994	1.08	1.12	1.25	1.14	0.934	1.02	0.987	0.957	0.645	0.717	0.687	0.628	0.519	0.567	0.544	0.568
